Experimental data from patent US20250221966A1, “RXFP1 AGONISTS” (BRISTOL-MYERS SQUIBB COMPANY, priority 2021, published 2025).

Target: T1, human RXFP1 (Homo sapiens, UniProt Q9HBX9)
T1 construct: expressed in transfected cells
T1 sequence (Q9HBX9 1-757): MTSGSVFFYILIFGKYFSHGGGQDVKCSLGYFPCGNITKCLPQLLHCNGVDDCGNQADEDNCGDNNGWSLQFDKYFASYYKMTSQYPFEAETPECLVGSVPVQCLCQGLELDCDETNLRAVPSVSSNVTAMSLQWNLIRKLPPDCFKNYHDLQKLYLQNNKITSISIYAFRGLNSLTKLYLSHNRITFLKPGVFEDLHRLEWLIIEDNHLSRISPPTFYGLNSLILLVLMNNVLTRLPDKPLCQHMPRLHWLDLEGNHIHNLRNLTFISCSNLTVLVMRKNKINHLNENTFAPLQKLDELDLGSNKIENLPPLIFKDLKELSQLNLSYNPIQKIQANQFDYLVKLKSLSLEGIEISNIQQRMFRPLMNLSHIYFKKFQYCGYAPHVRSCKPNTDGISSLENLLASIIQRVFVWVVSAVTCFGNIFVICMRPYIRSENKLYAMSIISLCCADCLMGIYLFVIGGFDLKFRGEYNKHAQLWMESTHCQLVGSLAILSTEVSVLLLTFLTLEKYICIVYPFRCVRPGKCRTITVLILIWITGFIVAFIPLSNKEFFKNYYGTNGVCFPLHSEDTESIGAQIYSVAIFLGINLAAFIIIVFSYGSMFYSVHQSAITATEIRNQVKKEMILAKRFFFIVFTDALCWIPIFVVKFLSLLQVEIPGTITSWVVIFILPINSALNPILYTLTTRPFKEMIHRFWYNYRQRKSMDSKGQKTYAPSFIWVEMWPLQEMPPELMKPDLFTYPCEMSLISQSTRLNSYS
Test: RXFP1 cAMP assay (hRXFP1 HEK293 cAMP assay, HTRF)
Assay type: cell-based
Conditions: HEK293 cells stably expressing human RXFP1, 30 min at room temperature, read-out: cAMP hRXFP1 HEK293 Assay EC50
Method in brief: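 hRXFP1-HEK293 stable line; HBSS + Ca/Mg, 20 mM HEPES, 0.05% BSA, 0.5 mM IBMX; cpd 0.010 nM–50 μM, 2% DMSO; 30 min RT; lysis, HTRF cAMP detection; 4-PL fit.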

Row | Structure (SMILES) | EC50
1 | COc1ccc(C2=NOC3CC(F)CC23)cc1C(=O)N[C@H]1[C@@H](C(=O)Nc2ccc(F)c(C(F)(F)F)c2)[C@H]2CC[C@@H]1/C2=C\C1CC1 (stereo partly drawn) [Example 427, (1R,2S,3R,4R,Z)-7-(cyclopropylmethylene)-N-(4-fluoro-3-(trifluoromethyl)phenyl)-3-(5-(5-fluoro-3a,5,6,6a-tetrahydro-4H-cyclopenta[d]isoxazol-3-yl)-2-methoxybenzamido)bicyclo[2.2.1]heptane-2-carboxamide] | 54 nM
2 | COc1ccc(-c2cc([C@H](OC(=O)NC3CC3)C(F)(F)F)ccc2F)cc1C(=O)N[C@H]1[C@@H](C(=O)Nc2ccc(F)c(C(F)(F)F)c2)[C@H]2CC[C@@H]1/C2=C\CC(C)C [compound 929] | 1.6 nM
3 | COc1ccc(-c2cc(C(O)C(=O)O)ccc2F)cc1C(=O)NC1C2CCC(/C2=C/C2CCCC2)C1C(=O)Nc1ccc(F)c(C(F)(F)F)c1 (stereo not shown) [compound 355] | 3 nM
4 | COc1ccc(C2=NOC3CC(CO)CC23)cc1C(=O)N[C@H]1[C@@H](C(=O)Nc2ccc(F)c(C(F)(F)F)c2)[C@H]2CC[C@@H]1/C2=C\C(C)C (stereo partly shown) [compound 454] | 1.9 nM
5 | COc1ccc(C2=NOC(C(=O)O)C2)cc1C(=O)N[C@H]1[C@@H](C(=O)Nc2ccc(F)c(C(F)(F)F)c2)[C@H]2CC[C@@H]1/C2=C\C1CC1 (mixture of isomers) [Example 384, 3-(3-(((1R,2R,3S,4R,Z)-7-(cyclopropylmethylene)-3-((4-fluoro-3-(trifluoromethyl)phenyl)carbamoyl)bicyclo[2.2.1]heptan-2-yl)carbamoyl)-4-methoxyphenyl)-4,5-dihydroisoxazole-5-carboxylic acid] | 123 nM
6 | COc1ccc(C2=NOC(C)(C(=O)O)C2)cc1C(=O)N[C@@H]1C2CCC(/C2=C/C2CC2)[C@@H]1C(=O)Nc1ccc(F)c(C(F)(F)F)c1 (stereo partly shown) [compound 422] | 55 nM
7 | COc1c(F)cc(C2=NOC3CC(CO)CC23)cc1C(=O)N[C@H]1[C@@H](C(=O)N[C@H](C)C2(C)CC2)[C@H]2CC[C@@H]1/C2=C\CCC(F)(F)F (stereo partly shown) [compound 834] | 3.8 nM
8 | COc1ccc(C2=NOC(CO)C2CO)cc1C(=O)N[C@H]1[C@@H](C(=O)Nc2ccc(F)c(C(F)(F)F)c2)[C@H]2CC[C@@H]1/C2=C\C1CC1 (single isomer, unassigned) [compound 481] | 6.7 nM
9 | COc1c(F)cc(C2=NOC3CC(CO)CC23)cc1C(=O)N[C@@H]1C2CCC(/C2=C/C2CC2)[C@@H]1C(=O)NC12CC(C#N)(C1)C2 (stereo partly shown) [compound 772] | 3.8 nM
10 | COc1ccc(-c2cn(C)nc2C)cc1C(=O)N[C@H]1[C@@H](C(=O)Nc2ccc(F)c(C(F)(F)F)c2)[C@H]2CC[C@@H]1C2=C(C)C [compound 92] | 380 nM
11 | COc1ccc(C2=NOC3COCC23)cc1C(=O)N[C@H]1[C@@H](C(=O)NC(C)(C)C)[C@H]2CC[C@@H]1/C2=C\C1CC1 (stereo partly shown) [compound 545] | 31.5 nM
12 | O=C(O)c1ccc(F)c(-c2ccc(OCCO)c(C(=O)N[C@@H]3C4CCC(/C4=C/C(F)(F)F)[C@@H]3C(=O)Nc3ccc(F)c(C(F)(F)F)c3)c2)c1 (stereo partly shown) [compound 321] | 91 nM
13 | COc1ccc(C2=NOC3CS(=O)(=O)CC23)cc1C(=O)N[C@@H]1C2CCC(/C2=C/C2CC2)[C@@H]1C(=O)Nc1ccc(F)c(C(F)(F)F)c1 (single isomer, unassigned) [compound 443] | 5 nM
14 | COc1cc(F)c(F)cc1C(=O)N[C@@H]1C2CCC(/C2=C/c2cccc(Cc3ccccc3)c2)[C@@H]1C(=O)Nc1ccc(F)c(C(F)(F)F)c1 (stereo partly shown) [compound 49] | 200 nM
15 | COc1cc(F)c(F)cc1C(=O)N[C@@H]1C2CCC(C2=C(C)C)[C@@H]1C(=O)Nc1ccnc(C(F)(F)F)c1 (stereo partly shown) [compound 75] | 2600 nM
16 | COc1ccc(-c2cc(CO)on2)cc1C(=O)N[C@H]1[C@@H](C(=O)Nc2ccc(F)c(C(F)(F)F)c2)[C@H]2CC[C@@H]1/C2=C\C1CC1 [Example 423, (1R,2S,3R,4R,Z)-7-(cyclopropylmethylene)-N-(4-fluoro-3-(trifluoromethyl)phenyl)-3-(5-(5-(hydroxymethyl)isoxazol-3-yl)-2-methoxybenzamido)bicyclo [2.2.1]heptane-2-carboxamide] | 28 nM
